Laboratory results as given in patent US20210145801A1, “THERAPY FOR PROTEIN MISFOLDING DISEASE” (WREN THERAPEUTICS LIMITED, priority 2018, published 2021).
Like-named read-outs stand apart in the source and are kept apart here.

Key:
[1] = test system: N2 control (healthy) worms; experiment: Automated motility assay in healthy control worms; type: in vivo, C. elegans; settings: same concentration range as in AD worms
Protocol: Standard conditions were used for the propagation of C. elegans (S. Brenner, The genetics of Caenorhabditis elegans. Genetics. 77, 71-94 (1974)). Briefly, the animals were synchronized by hypochlorite bleaching, hatched overnight in M9 buffer (3 g/l KH2PO4, 6 g/l Na2HPO4, 5 g/l NaCl, […]), and subsequently cultured at 20° C. on nematode growth medium (NGM) (CaCl2) 1 mM, MgSO4 1 mM, cholesterol 5 μg/mL, PBS Buffer (250 μM KH2PO4, 67.5 μM KCl, 3.425 mM of NaCl, pH 6), Agar 17 g/L, NaCl 3 g/1, casein 7.5 g/l) plates seeded with the E. coli strain OP50. […]
(§1) All C. elegans populations were cultured at 20° C. and developmentally synchronized from a 4 h egg-lay. At 64-72 h post-egg-lay (time zero), individuals were transferred to FUDR plates, and body movements were assessed over the times indicated. At different ages, the animals were washed off the plates with M9 buffer and spread over an OP-50 unseeded 9 cm plate, after which their movements were recorded at 20 fps using a recently developed microscopic procedure (M. Perni et al., Massively parallel C. elegans tracking provides multi-dimensional fingerprints for phenotypic discovery. J. Neurosci. Methods. 306, 57-67 (2018)) for 1 min. Up to 600 animals were counted in each experiment in duplicate unless stated otherwise. […]

[2] = Pharmacokinetic study, single oral dose; type: in vivo, male, Swiss Albino mice; settings: 11.5 mg/kg p.o.; for concentration at 6 h: oral
Protocol: The pharmacokinetic profile was assessed in male, Swiss Albino mice in a discrete study using a single per oral dose of Netoglitazone (11.5 mg/kg, 30 μmoles/kg) formulated as a solution in 10% NMP/90% Solutol (as a 20% v/v solution in PBS). The dosing concentration was 2.3 mg/mL with a dosing volume of 5.0 mL/kg. Data were derived from the average of 3 animals per timepoint (terminal sampling). Plasma samples were collected at 0.25, 0.50, 1.0, 2.0, 4.0, 6.0, 8.0 and 24 hours by protein precipitation method with acetonitrile. Brain samples were collected at 6.0 and 24 hours by brain homogenisation and protein precipitation method with acetonitrile. Cerebrospinal fluid (CSF) samples were collected at 6.0 and 24 hours by protein precipitation method with acetonitrile. Samples were analysed using UHPLC with TOF mass spectrometry using electrospray ionisation.

[3] = molecular target: T1, Aβ42 (Homo sapiens, UniProt P05067); experiment: Aβ42 aggregation kinetics in human CSF; type: biochemical; settings: 66% CSF; 1.25 and 5-fold excess
T1 construct: made in house; host or cells: E. coli BL21 Gold (DE3)
Protocol: For the experiments of Aβ42 aggregation kinetics in human CSF, monomeric solutions of 3 μM Aβ42 were prepared similar to above with the only exception that the buffer was 20 mM Hepes, pH 8 supplemented with 1 mM CaCl2 at 150 mM NaCl. The obtained monomer was diluted with the […] in order to reach 66% final concentration of CSF, in which the effect of CSF is close to maximum. Aβ42 aggregation kinetics were performed in the absence and the presence of 1.25 and 5-fold excess of Netoglitazone.

[4] = test system: Aβ1-42Neur worms (CL2355); experiment: Automated motility assay in Aβ1-42Neur worms; type: in vivo, C. elegans; settings: vs untreated worms
Protocol: (§2) Briefly, Netoglitazone stocks (5 mM in 100% DMSO) were used at an appropriate concentration to seed 9-cm NGM plates. Plates were then placed in a laminar flow hood at room temperature (22° C.) for up to 4 hours to dry. C. elegans cultures were then transferred onto media seeded with compound as L4 stage or Day 3 for late treatments and incubated at 24° for the whole experiment. Experiments were carried out at different Netoglitazone concentrations ranging from 0.05 to 500 μM in 1% DMSO. As controls, plates seeded only with 1% DMSO were used.
as §1

[5] = test system: AD worms (GMC101); settings: GMC101, C. elegans, in vivo
Protocol: as §2

[6] = male, Swiss Albino, mouse, plasma, po, single dose

T1 sequence (P05067 671-713): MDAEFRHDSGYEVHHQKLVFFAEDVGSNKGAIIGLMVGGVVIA

## O=C1NC(=O)C(Cc2ccc3cc(OCc4ccccc4F)ccc3c2)S1 (stereo not drawn) [Netoglitazone]
[1]
  Effect on mobility of healthy worms: negligible compared to the observed effect in AD worms
[2]
  Brain penetration across the blood brain barrier: good brain penetration across the blood brain barrier
[2]; male, Swiss Albino, mouse, CSF, read-out: CSF levels
  concentration at 6 h: 50 ng/mL
[2]; male, Swiss Albino, mouse, brain homogenate, read-out: Total brain levels
  concentration at 6 h: 8540 ng/g
[2]; [6]
  Cmax: 14400 ng/mL
  Tmax: 6 h
[3]
  Delay of Aβ42 aggregation kinetics in 66% human CSF: significantly delayed the aggregation kinetics in a concentration-dependent manner
[4]
  Motility of Aβ1-42Neur worms: significantly improves the (A) chemotaxis index and (B) motility
[5]
  Maximum tolerable dose in AD worms: less than 50 μM
